{
  "source": "patent US8008291B2",
  "about": "(Mimetica Pty Ltd, priority 2008, dated 2011)",
  "target": "T1, human MC5R (hMC5R) (Homo sapiens, UniProt P33032)",
  "T1 construct": "purchased Perkin Elmer RBXMC5M400UA",
  "T1 sequence (P33032 whole entry)": "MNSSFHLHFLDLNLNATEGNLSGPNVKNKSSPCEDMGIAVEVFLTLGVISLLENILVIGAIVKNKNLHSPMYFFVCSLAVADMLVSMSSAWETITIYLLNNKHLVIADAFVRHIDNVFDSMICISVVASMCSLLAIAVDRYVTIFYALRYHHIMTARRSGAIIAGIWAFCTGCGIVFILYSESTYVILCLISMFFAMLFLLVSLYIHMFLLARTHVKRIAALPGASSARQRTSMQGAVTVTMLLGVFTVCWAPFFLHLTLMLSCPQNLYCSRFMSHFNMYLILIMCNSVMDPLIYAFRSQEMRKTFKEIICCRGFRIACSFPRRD",
  "experiment": "Human MC5R radioligand binding assay (membranes, [125I] NDP-MSH displacement)",
  "details": "hMC5R binding; tested as trifluoroacetate or hydrochloride salts, or free bases; read-out: MC5R radioligand IC50",
  "summary_of_the_method": "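Frozen human MC5R membranes incubated with test compound and in-house iodogen-labeled, HPLC-purified [125I]NDP-MSH for 1 hr at 37° C. Binding measured as displacement of the radioligand.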",
  "data": [
    {"smiles": "CC[C@H](CN1CC[C@@H](CNC(=O)c2ccc(Cl)c(Cl)c2)N[C@@H](CCN(C)Cc2ccccc2)C1=O)c1ccccc1", "note": "[Compound 442, N-(((3S,5S)-3-(2-(benzyl(methyl)amino)ethyl)-2-oxo-1-((S)-2-phenylbutyl)-1,4-diazepan-5-yl)methyl)-3,4-dichlorobenzamide]", "values": [
      {"measurement": "IC50", "result": "< 0.01", "unit": "µM"}
    ]},
    {"smiles": "O=C(NC[C@@H]1CCN(CC(c2ccccc2)c2ccccc2)C(=O)[C@H](CCN2CCCCC2)N1)c1ccc2cc(F)ccc2c1", "note": "[Compound 379, N-(((3S,5S)-1-(2,2-diphenylethyl)-2-oxo-3-(2-(piperidin-1-yl)ethyl)-1,4-diazepan-5-yl)methyl)-6-fluoro-2-naphthamide]", "values": [
      {"measurement": "IC50", "result": "< 0.01", "unit": "µM"}
    ]},
    {"smiles": "N=C(N)NCCC[C@@H]1N[C@H](CNC(=O)c2ccc3ccccc3c2)CCN(Cc2ccccc2)C1=O", "note": "[Compound 249, N-(((3S,5S)-1-benzyl-3-(3-guanidinopropyl)-2-oxo-1,4-diazepan-5-yl)methyl)-2-naphthamide]", "values": [
      {"measurement": "IC50", "result": "< 10", "unit": "µM"}
    ]},
    {"smiles": "CC[C@H](CN1CC[C@@H](CNC(=O)c2ccc(Cl)cc2Cl)N[C@@H](CCN2CCCCC2)C1=O)c1ccccc1", "note": "[Compound 534, 2,4-dichloro-N-(((3S,5S)-2-oxo-1-((S)-2-phenylbutyl)-3-(2-(piperidin-1-yl)ethyl)-1,4-diazepan-5-yl)methyl)benzamide]", "values": [
      {"measurement": "IC50", "result": "< 0.01", "unit": "µM"}
    ]},
    {"smiles": "CC[C@H](CN1CC[C@@H](CNC(=O)c2ccc3cc(Cl)ccc3c2)N[C@@H](CNC(=N)N)C1=O)c1ccccc1", "note": "[Compound 500, 6-chloro-N-(((3S,5S)-3-(guanidinomethyl)-2-oxo-1-((S)-2-phenylbutyl)-1,4-diazepan-5-yl)methyl)-2-naphthamide]", "values": [
      {"measurement": "IC50", "result": "< 0.1", "unit": "µM"}
    ]},
    {"smiles": "C[C@@H](CN1CC[C@@H](CNC(=O)c2ccc3ccccc3c2)N[C@@H](CCN2CCCCC2)C1=O)c1ccc(Cl)cc1", "note": "[Compound 423, N-(((3S,5S)-1-((R)-2-(4-chlorophenyl)propyl)-2-oxo-3-(2-(piperidin-1-yl)ethyl)-1,4-diazepan-5-yl)methyl)-2-naphthamide]", "values": [
      {"measurement": "IC50", "result": "< 10", "unit": "µM"}
    ]},
    {"smiles": "N=C(N)NCCC[C@@H]1N[C@H](CNC(=O)c2ccc3ccccc3c2)CCN(CC23CC4CC(CC(C4)C2)C3)C1=O", "note": "[Compound 202, N-(((3S,5S)-1-(1-adamantylmethyl)-3-(3-guanidinopropyl)-2-oxo-1,4-diazepan-5-yl)methyl)-2-naphthamide]", "values": [
      {"measurement": "IC50", "result": "< 1", "unit": "µM"}
    ]},
    {"smiles": "O=C(/C=C/c1ccc(Cl)cc1)NC[C@@H]1CCN(CC(c2ccccc2)c2ccccc2)C(=O)[C@H](CNC(=O)c2ccccn2)N1", "note": "[Compound 393, N-(((2S,7S)-7-(((E)-3-(4-chlorophenyl)acrylamido)methyl)-4-(2,2-diphenylethyl)-3-oxo-1,4-diazepan-2-yl)methyl)picolinamide]", "values": [
      {"measurement": "IC50", "result": "< 10", "unit": "µM"}
    ]},
    {"smiles": "NCCC[C@@H]1N[C@H](CNC(=O)c2ccc3ccccc3c2)CCN(Cc2cc(F)cc(Cl)c2)C1=O", "note": "[Compound 312, N-(((3S,5S)-3-(3-aminopropyl)-1-(3-chloro-5-fluorobenzyl)-2-oxo-1,4-diazepan-5-yl)methyl)-2-naphthamide]", "values": [
      {"measurement": "IC50", "result": "< 1", "unit": "µM"}
    ]},
    {"smiles": "N=C(N)NCCC[C@@H]1N[C@H](CNC(=O)c2ccc3ccccc3c2)CCN(CC(C(=O)N2CCCCC2)c2ccccc2)C1=O", "note": "(stereo partly drawn) [Compound 343, N-(((3S,5S)-3-(3-guanidinopropyl)-2-oxo-1-(3-oxo-2-phenyl-3-(piperidin-1-yl)propyl)-1,4-diazepan-5-yl)methyl)-2-naphthamide]", "values": [
      {"measurement": "IC50", "result": "< 10", "unit": "µM"}
    ]},
    {"smiles": "NCCC[C@@H]1N[C@H](CNC(=O)c2cc3ccccc3[nH]2)CCN(CC(c2ccccc2)c2ccccc2)C1=O", "note": "[Compound 107, N-(((3S,5S)-3-(3-aminopropyl)-1-(2,2-diphenylethyl)-2-oxo-1,4-diazepan-5-yl)methyl)-1H-indole-2-carboxamide]", "values": [
      {"measurement": "IC50", "result": "< 1", "unit": "µM"}
    ]},
    {"smiles": "CC[C@H](CN1CC[C@@H](CNC(=O)c2ccc3cc(Cl)ccc3c2)N[C@@H](CCN)C1=O)c1ccccc1", "note": "[Compound 441, N-(((3S,5S)-3-(2-aminoethyl)-2-oxo-1-((S)-2-phenylbutyl)-1,4-diazepan-5-yl)methyl)-6-chloro-2-naphthamide]", "values": [
      {"measurement": "IC50", "result": "< 0.1", "unit": "µM"}
    ]},
    {"smiles": "N=C(N)NCCC[C@@H]1N[C@H](CNC(=O)c2ccc3ccccc3c2)CCN(Cc2cc(F)cc(Cl)c2)C1=O", "note": "[Compound 310, N-(((3S,5S)-1-(3-chloro-5-fluorobenzyl)-3-(3-guanidinopropyl)-2-oxo-1,4-diazepan-5-yl)methyl)-2-naphthamide]", "values": [
      {"measurement": "IC50", "result": "< 1", "unit": "µM"}
    ]},
    {"smiles": "C[C@H](CN1CC[C@@H](CNC(=O)c2ccc3ccccc3c2)N[C@@H](CCN2CCCCC2)C1=O)c1ccc(Cl)cc1", "note": "[Compound 424, N-(((3S,5S)-1-((S)-2-(4-chlorophenyl)propyl)-2-oxo-3-(2-(piperidin-1-yl)ethyl)-1,4-diazepan-5-yl)methyl)-2-naphthamide]", "values": [
      {"measurement": "IC50", "result": "< 1", "unit": "µM"}
    ]},
    {"smiles": "O=C(NC[C@@H]1CCN(CC(c2ccccc2)c2ccccc2)C(=O)[C@H](CCCN2CCC2)N1)c1ccc2ccccc2c1", "note": "[Compound 262, N-(((3S,5S)-3-(3-(azetidin-1-yl)propyl)-1-(2,2-diphenylethyl)-2-oxo-1,4-diazepan-5-yl)methyl)-2-naphthamide]", "values": [
      {"measurement": "IC50", "result": "< 0.1", "unit": "µM"}
    ]},
    {"smiles": "N=C(N)NCCC[C@@H]1N[C@H](CNC(=O)c2ccc3ccccc3c2)CCN(Cc2ccc3ccccc3c2)C1=O", "note": "[Compound 251, N-(((3S,5S)-3-(3-guanidinopropyl)-1-(naphthalen-2-ylmethyl)-2-oxo-1,4-diazepan-5-yl)methyl)-2-naphthamide]", "values": [
      {"measurement": "IC50", "result": "< 10", "unit": "µM"}
    ]},
    {"smiles": "N=C(N)NCCC[C@@H]1N[C@H](CNC(=O)c2cc3ccccc3o2)CCN(CC(c2ccccc2)c2ccccc2)C1=O", "note": "[Compound 132, N-(((3S,5S)-1-(2,2-diphenylethyl)-3-(3-guanidinopropyl)-2-oxo-1,4-diazepan-5-yl)methyl)benzofuran-2-carboxamide]", "values": [
      {"measurement": "IC50", "result": "< 10", "unit": "µM"}
    ]},
    {"smiles": "CC[C@H](CN1CC[C@@H](CNC(=O)/C=C/c2ccc(Cl)cc2)N[C@@H](CCN2CCCC2)C1=O)c1ccccc1", "note": "[Compound 407, (E)-3-(4-chlorophenyl)-N-(((3S,5S)-2-oxo-1-((S)-2-phenylbutyl)-3-(2-(pyrrolidin-1-yl)ethyl)-1,4-diazepan-5-yl)methyl)acrylamide]", "values": [
      {"measurement": "IC50", "result": "< 0.1", "unit": "µM"}
    ]},
    {"smiles": "N=C(N)NCCC[C@@H]1N[C@H](CNC(=O)c2ccc3ccccc3c2)CCN(c2ccc3ccccc3c2)C1=O", "note": "[Compound 226, N-(((3S,5S)-3-(3-guanidinopropyl)-1-(naphthalen-2-yl)-2-oxo-1,4-diazepan-5-yl)methyl)-2-naphthamide]", "values": [
      {"measurement": "IC50", "result": "< 10", "unit": "µM"}
    ]},
    {"smiles": "CC[C@H](CN1CC[C@@H](CNC(=O)c2ccc(Cl)c(Cl)c2)N[C@@H](CCN(C(C)C)C(C)C)C1=O)c1ccccc1", "note": "[Compound 445, 3,4-dichloro-N-(((3S,5S)-3-(2-(diisopropylamino)ethyl)-2-oxo-1-((S)-2-phenylbutyl)-1,4-diazepan-5-yl)methyl)benzamide]", "values": [
      {"measurement": "IC50", "result": "< 0.01", "unit": "µM"}
    ]},
    {"smiles": "CC[C@@H](CN1CC[C@@H](CNC(=O)c2ccc3ccccc3c2)N[C@@H](CCN2CCCCC2)C1=O)c1ccccc1", "note": "[Compound 39, N-(((3S,5S)-2-oxo-1-((R)-2-phenylbutyl)-3-(2-(piperidin-1-yl)ethyl)-1,4-diazepan-5-yl)methyl)-2-naphthamide]", "values": [
      {"measurement": "IC50", "result": "< 0.1", "unit": "µM"}
    ]},
    {"smiles": "CC[C@H](CN1CC[C@@H](CNC(=O)c2ccc3cc(Cl)ccc3c2)N[C@@H](CCN2CCOCC2)C1=O)c1ccccc1", "note": "[Compound 515, 6-chloro-N-(((3S,5S)-3-(2-morpholinoethyl)-2-oxo-1-((S)-2-phenylbutyl)-1,4-diazepan-5-yl)methyl)-2-naphthamide]", "values": [
      {"measurement": "IC50", "result": "< 0.1", "unit": "µM"}
    ]},
    {"smiles": "O=C1[C@H](CCN2CCCCC2)N[C@H](CNCc2ccc(Cl)c(Cl)c2)CCN1CC(c1ccccc1)c1ccccc1", "note": "[Compound 456, (3S,5S)-5-((3,4-dichlorobenzylamino)methyl)-1-(2,2-diphenylethyl)-3-(2-(piperidin-1-yl)ethyl)-1,4-diazepan-2-one]", "values": [
      {"measurement": "IC50", "result": "< 0.1", "unit": "µM"}
    ]},
    {"smiles": "N=C(N)NCCC[C@@H]1N[C@H](CNC(=O)c2ccc3ccccc3c2)CCN(CCC2CC3CCC2C3)C1=O", "note": "(stereo partly drawn) [Compound 243, N-(((3S,5S)-1-(2-(bicyclo[2.2.1]heptan-2-yl)ethyl)-3-(3-guanidinopropyl)-2-oxo-1,4-diazepan-5-yl)methyl)-2-naphthamide]", "values": [
      {"measurement": "IC50", "result": "< 1", "unit": "µM"}
    ]},
    {"smiles": "N=C(N)NCCC[C@@H]1N[C@H](CNC(=O)c2ccc3ccccc3c2)CCN(CC(OCc2ccccc2)c2ccccc2)C1=O", "note": "(stereo partly drawn) [Compound 291, N-(((3S,5S)-1-(2-(benzyloxy)-2-phenylethyl)-3-(3-guanidinopropyl)-2-oxo-1,4-diazepan-5-yl)methyl)-2-naphthamide]", "values": [
      {"measurement": "IC50", "result": "< 1", "unit": "µM"}
    ]},
    {"smiles": "O=C(/C=C/c1ccc(Cl)cc1)NC[C@@H]1CCN(CC(c2ccccc2)c2ccccc2)C(=O)[C@H](CCCN2CCCC2)N1", "note": "[Compound 258, (E)-3-(4-chlorophenyl)-N-(((3S,5S)-1-(2,2-diphenylethyl)-2-oxo-3-(3-(pyrrolidin-1-yl)propyl)-1,4-diazepan-5-yl)methyl)acrylamide]", "values": [
      {"measurement": "IC50", "result": "< 0.1", "unit": "µM"}
    ]},
    {"smiles": "O=C(NC[C@@H]1CCN(Cc2cc(Cl)cc(Cl)c2)C(=O)[C@H](CCN2CCCCC2)N1)c1ccc2ccccc2c1", "note": "[Compound 327, N-(((3S,5S)-1-(3,5-dichlorobenzyl)-2-oxo-3-(2-(piperidin-1-yl)ethyl)-1,4-diazepan-5-yl)methyl)-2-naphthamide]", "values": [
      {"measurement": "IC50", "result": "< 0.1", "unit": "µM"}
    ]},
    {"smiles": "N=C(N)NCCC[C@@H]1N[C@H](CNC(=O)c2ccc3ccccc3c2)CCN(CCc2ccc3ccccc3c2)C1=O", "note": "[Compound 264, N-(((3S,5S)-3-(3-guanidinopropyl)-1-(2-(naphthalen-2-yl)ethyl)-2-oxo-1,4-diazepan-5-yl)methyl)-2-naphthamide]", "values": [
      {"measurement": "IC50", "result": "< 10", "unit": "µM"}
    ]},
    {"smiles": "CCC(CC)CN1CC[C@@H](CNC(=O)c2ccc3cc(Cl)ccc3c2)N[C@@H](CCN2CCCCC2)C1=O", "note": "[Compound 373, 6-chloro-N-(((3S,5S)-1-(2-ethylbutyl)-2-oxo-3-(2-(piperidin-1-yl)ethyl)-1,4-diazepan-5-yl)methyl)-2-naphthamide]", "values": [
      {"measurement": "IC50", "result": "< 0.1", "unit": "µM"}
    ]},
    {"smiles": "CCC(CC)CN1CC[C@@H](CNC(=O)c2ccc3cc(F)ccc3c2)N[C@@H](CCN)C1=O", "note": "[Compound 369, N-(((3S,5S)-3-(2-aminoethyl)-1-(2-ethylbutyl)-2-oxo-1,4-diazepan-5-yl)methyl)-6-fluoro-2-naphthamide]", "values": [
      {"measurement": "IC50", "result": "< 1", "unit": "µM"}
    ]}
  ]
}
